Common to all, as to type: physicochemical
The nature of series [1]: Turbidity of pooled reconstituted samples (Hach 2100AN turbidimeter, NTU). The text has this:
Turbidity monitors the transmission of light through a liquid sample to determine whether the sample is clear or the degree of opalescence in the sample. The analysis can be performed using a Hach Model 2100AN Laboratory Turbidimeter. The Hach Model 2100AN is a ratio turbidimeter that uses the ratio of transmitted to scattered light to reduce error in the measurement caused by colored solutions.
Prior to each use, the Turbidimeter is calibrated with a Hach StabCal® Calibration Kit and then checked using Hach Gelex® Secondary Turbidity Standards. Sample cells are cleaned and oiled to reduce interference by dirt or imperfections in the glass. Sample cell indexing matches cells with similar interference for sample comparison.
Reconstituted samples can be pooled to achieve at least 2.5 mL of sample, which is placed in the indexed sample cells for analysis. The turbidimeter measures the opalescence and returns a value in nephelometric turbidity units (NTU) ratio. This value was recorded by the instrument with a time and date stamp to track each sample.

A short description of series [2]: Thermogravimetric analysis (TGA) weight loss of the lyophilized product. The source says: TGA can be used as a corroborative method for residual moisture determination where the change in weight is attributed to the evolution of volatile substances, such as water. In addition, TGA can be used to deter mine physico-chemical changes as the specimen begins to decompose at elevated temperatures.
TGA monitors the change in weight of a material as a function of temperature or time with heating. The analysis can be performed using a TA Instruments QSO per USP 891, Thermal Analysis. Test parameters and data analysis can conducted using TA Instruments Universal Analysis® software version 4.5A on a PC interface.
Solid material, with a weight of about 13 mg to about 19 mg, can be placed in an open ceramic sample pan. The sample is then heated from 25° C. to 400° C. using a warming rate of about 10° C. per minute to measure the weight loss across the temperature range. Nitrogen, NF is used to purge the sample continuously at a flow rate of 60 mL/minute. The instrument is calibrated at temperatures that span the range of high temperature analysis.
The lyophilized material is warmed and the sample weight can be monitored for any change. During warming, weight loss is correlated to the evolution of volatile components in the sample. Calculations identify the sample weight correlated to a temperature.

Series [3] is described as follows: Reconstitution time of the lyophilized product in the diluent (65% propylene glycol, 25% glycerin, 10% ethanol). To be noted: 1 mL diluent. The text has this:
(§1) The requirements of a constituted solution are that there is no visible insoluble material and the solution is no less clear than the diluent after a predetermined amount of time. The volume for reconstitution can return the product to the same volume and concentration as the bulk solution used for filling or may be the volume intended for patient delivery in a clinical setting.
For reconstitution, a specified volume of a diluent can be drawn up into a syringe. The diluent can then be extruded into the center of the dried cake of the product and the timer started. The product is then inspected at approximately 5 second intervals to determine the time material dissolved.
Reconstitution was performed by extruding 1 mL of diluent into each vial using a vial adapter or syringe and allowing the vials to sit undisturbed until clear.
(§2) Following lyophilization, the lyophilized samples were analysed for purity (% purity by HPLC), DMSO residual content, and residual moisture. The samples were reconstituted by dissolving them in the non-aqueous solvent system described in TABLE 11 below and the reconstitution time and appearance of the reconstituted formulations were analysed.

Series [4] can be described thus: Appearance of the reconstituted solution. How it is done:
as §1, §2

[5] abbreviates: Example 8 Study E, 3 pooled samples per lot.
The mark [6] stands for this setting: Example 8 Study E: low shelf temperature, low chamber pressure, 15 microns in secondary drying.
Setting [7] is: Example 8 Study F: target parameters of TABLE 18.

Several values for one entry are separate records, joined by “and”; a condition that tells them apart may be missing. Identical values can stand only once.

In the case of `Nc1ncn(C2CC(OP(=O)([O-])OCC3OC(n4cnc5c(=O)[nH]c(N)nc54)CC3O)C(CO)O2)c(=O)n1.[Na+]` (stereo not drawn) [Lot 1], the “Turbidity (NTU)” value in series [1] (setting [5]) was 0.799 NTU and 0.833 NTU and 0.756 NTU. Further, the “Weight Loss (% w/w), Total (TGA)” value in series [2] (Example 8 Study F) is “Total: 18.93 % w/w”; in series [2] (Example 8 Study G, one vial), “Total: 16.7 % w/w”. Also, the “Average Recon Time (min)” value is reported as “Lot 1: 17 min” in series [3] (setting [6]) and “Lot 1: 17.3 min” in series [3] (setting [7]).
For `Nc1ncn(C2CC(OP(=O)([O-])OCC3OC(n4cnc5c(=O)[nH]c(N)nc54)CC3O)C(CO)O2)c(=O)n1.[Na+]` (stereo not drawn) [Lot 2], the “Turbidity (NTU)” value in series [1] (setting [5]) was 0.795 NTU and 0.808 NTU and 0.867 NTU. Further, the “Weight Loss (% w/w), Total (TGA)” value in series [2] (Example 8 Study F) is reported as “Total: 19.82 % w/w”. Also, the results for the “Average Recon Time (min)” value in series [3] (setting [6]) and in series [3] (setting [7]) were “Lot 2: 17 min” and “Lot 2: 18 min”, respectively.
`Nc1ncn([C@H]2CC(OP(=O)(O)OC[C@H]3O[C@@H](n4cnc5c(=O)[nH]c(N)nc54)CC3O)[C@@H](CO)O2)c(=O)n1` (stereo partly drawn) [compound of Formula (1)]: the “Appearance of reconstituted solution” value in series [4] (Example 7, lyophilization procedure of TABLE 16) is “clear reconstituted solution”; in series [4] (Example 8 Study A), “clear and colorless solutions”; in series [4] (Example 8 Study B) it was “clear and colorless solutions”; in series [4] (Example 8 Study C), “clear and colorless solutions”; in series [4] (Example 8 Study D), “clear and colorless solutions”; in series [4] (Example 8 Study E), “clear and colorless solutions”. Also, the “Appearance of reconstituted solution” value is “clear and colorless solutions” in series [4] (Example 8 Study F); “clear and colorless solutions” in series [4] (Example 8 Study G); “clear and colorless solutions” in series [4] (Example 8 Study H); “clear and colorless solutions” in series [4] (Example 8 repeat of Study H). In addition, the “Turbidity (NTU)” value in series [1] (setting [5]) was “below 3 NTU”; in series [1] (Example 8 Study G, 3 pooled samples), 16.9 NTU and 16 NTU and 19 NTU. Moreover, the “TGA total weight loss” value in series [2] (Example 2 full load, TABLE 6 cycle) turned out to be 17%. For the same compound, the “Weight Loss (% w/w), Total (TGA)” value in series [2] (Example 8 Study B, vial 1 and 2) is 17.35 % w/w and 18.07 % w/w; in series [2] (Example 8 Study F), “approximately 19 % w/w”; in series [2] (Example 8 Study G, one vial), “approximately 17 % w/w”. Also, in series [2] (Example 8 repeat of Study H, one vial), the TGA mass loss result is recorded as “about 17 % w/w”. Further, the “Average Recon Time” value in series [3] (setting [7]) fell in the range of 17 to 18 min.

(Values after US10858386B2, “Drug compound and purification methods thereof” (Otsuka Pharmaceutical Co., Ltd., priority 2017, dated 2020).)
